Measured values: US20150094220A1, “METHOD TO PREDICT THE SAFETY OF THE TREATMENT WITH A NICOTINIC CHOLINERGIC RECEPTOR AGONIST” (GENETRACER BIOTECH S.L, priority 2012, published 2015)

Tests used:
[1] = oral; cited from earlier work
[2] = 1 mg twice a day, 3-month treatment studies; cited from earlier work
[3] = molecular target: α4β2 neuronal nicotinic acetylcholine receptor subtype (Homo sapiens, UniProt P17787+P43681); settings: selective partial agonist; cited from earlier work
[4] = Observational pharmacogenetic study: dose reduction due to adverse effects in smokers treated with varenicline; assay type: in vivo, human; settings: for Linear OR, dose reduction due to adverse effects: linear model
Experimental: (§1) In a study conducted on 807 patients from the Tobacco Addiction Units of 22 hospitals and health centers in Spain and Portugal, more than 300 SNPs relating to the relevant pathways with respect to the efficacy of the 3 first-line pharmacological tobacco cessation treatments were assessed: nicotine replacement therapy (NRT), bupropion and varenicline. The safety was assessed after three months of abstinence from tobacco consumption in relation to the presence of adverse effects which determined the reduction or withdrawal of the initially applied treatment.
(§2) The analysis process was carried out after applying the usual checks for correcting data entry errors. The status of the subjects was first characterized either as “cases” or as “controls”, depending on the safety results obtained after 3 months of follow-up after the establishment of the chosen tobacco cessation treatment. Those individuals in whom (a) it was necessary to reduce the dose of the chosen treatment due to the presence of treatment-related adverse effects, or (b) it was necessary to suspend or change the treatment due to intolerance to same according to the assessment of his/her doctor, were considered as “cases”. The different statistical analysis models thus provided information about the safety associated with the presence of a certain genetic pattern.
(§3) To assess the possibility of confounding biases as a result of the mixed population analysis, and also as a control for genotyping errors, the Hardy-Weinberg disequilibrium test was performed both in the “cases” and in the corresponding “controls”. The result of this test was assessed before analyzing the results obtained in the various logistic regression models which were used to assess the association between the specific SNPs and the safety results of the prescribed treatments. The following penetrance models were used in the logistic regression models: dominant, recessive, additive, over-dominant and log-additive. The statistical analyses were performed both with the allelic frequency and with the genotypic frequency, the latter being those which provide the most information about the associations to be replicated. All the results were presented as odds-ratios (OR) with the corresponding 95% confidence intervals and statistical significance value thereof.
(§4) Finally, the discriminating power of the different genetic indicators (SNPs) analyzed with respect to the safety results was assessed by means of […] and area under the curve analysis. The final purpose of this analysis strategy was to enable estimating the probability of adverse effects that a subject with a certain genotypic profile who starts a tobacco cessation treatment (particularly with varenicline) may have and adjusting and monitoring his/her treatment based on this information.
(§5) For the purpose of determining the pharmacogenetic profile associated with the safety of a pharmacological smoking cessation treatment, the results obtained in terms of abstinence from tobacco consumption after 3 months were evaluated in relation to the presence of adverse effects which determined the reduction or withdrawal of the initially applied treatment. The subjects were divided into three groups which were treated with NRT, bupropion or varenicline.
(§6) It is an observational study with the intervention of 21 Tobacco Addiction Units from the public health services in Spain and Portugal. A total of 807 subjects were invited to participate in the study, 798 of whom provided their sociodemographic and clinical data taking a test with 144 items. They also provided a biological sample for subsequent genotyping. 483 individuals were treated with varenicline. The information of both the phenotypic and genotypic variables was collected for 479 patients treated with varenicline before establishing the pharmacological treatment.
(§7) The clinical results were linked to the safety of the pharmacological treatments. […]

[5] = Observational pharmacogenetic study: treatment suspension due to adverse effects in smokers treated with varenicline; assay type: in vivo, human
Experimental: as §1, §2, §3, §4, §5, §6, §7

Sequence of α4β2 neuronal nicotinic acetylcholine receptor subtype (P43681 29-627 limits assumed): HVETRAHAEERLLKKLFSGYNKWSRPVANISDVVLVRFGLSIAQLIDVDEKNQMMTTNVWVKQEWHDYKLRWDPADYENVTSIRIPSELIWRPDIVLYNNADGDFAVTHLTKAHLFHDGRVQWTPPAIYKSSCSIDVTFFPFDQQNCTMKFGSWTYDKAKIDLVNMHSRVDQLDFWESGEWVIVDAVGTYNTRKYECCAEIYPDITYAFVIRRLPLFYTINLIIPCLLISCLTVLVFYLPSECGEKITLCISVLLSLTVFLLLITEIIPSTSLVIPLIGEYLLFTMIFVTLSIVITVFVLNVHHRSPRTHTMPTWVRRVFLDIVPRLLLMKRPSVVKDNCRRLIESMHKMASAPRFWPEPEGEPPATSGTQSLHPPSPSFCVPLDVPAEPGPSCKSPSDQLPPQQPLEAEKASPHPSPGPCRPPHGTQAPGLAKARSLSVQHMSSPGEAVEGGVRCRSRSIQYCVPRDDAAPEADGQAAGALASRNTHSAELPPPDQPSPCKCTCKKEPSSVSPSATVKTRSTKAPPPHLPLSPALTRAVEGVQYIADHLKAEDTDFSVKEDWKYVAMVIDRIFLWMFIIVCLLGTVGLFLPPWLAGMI
Sequence of α4β2 neuronal nicotinic acetylcholine receptor subtype (P17787 26-502): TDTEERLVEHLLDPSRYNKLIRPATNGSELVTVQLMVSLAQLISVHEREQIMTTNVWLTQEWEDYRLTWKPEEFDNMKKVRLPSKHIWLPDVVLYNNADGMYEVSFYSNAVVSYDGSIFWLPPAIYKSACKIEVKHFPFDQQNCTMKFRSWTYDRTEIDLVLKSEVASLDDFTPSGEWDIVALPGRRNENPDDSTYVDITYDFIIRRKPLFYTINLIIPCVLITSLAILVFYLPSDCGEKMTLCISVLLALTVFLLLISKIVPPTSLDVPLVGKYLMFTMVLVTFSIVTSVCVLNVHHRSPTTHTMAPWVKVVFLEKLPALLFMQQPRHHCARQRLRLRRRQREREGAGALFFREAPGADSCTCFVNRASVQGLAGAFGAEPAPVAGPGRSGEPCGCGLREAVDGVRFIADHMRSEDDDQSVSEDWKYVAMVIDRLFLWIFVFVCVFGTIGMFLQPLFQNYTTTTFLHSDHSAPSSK

In the case of `c1cnc2cc3c(cc2n1)C1CNCC3C1` [varenicline, 7,8,9,10-tetrahydro-6,10-methane-6H-pyrazino[2,3-h][3]benzazepine], the absorption [1] is listed as “complete”, the systemic availability [1] is listed as “high” and the “time of maximum plasma concentrations after intake” value [1] is listed as 3 to 4 h. The “treatment withdrawal rate due to adverse effects” value [2] was 12%, the “withdrawal rate due to headache” value [2] was 0.6% and the “withdrawal rate due to insomnia” value [2] was 1.2%. For the same molecule, the “withdrawal rate due to nausea” value [2] was 3%, the “withdrawal rate due to sleep alterations” value [2] was 0.3% and the affinity [3] was “high affinity”. The “OR (95% CI), alleles, dose reduction due to adverse effects” value (from here on “OR (95% CI), alleles, dose reduction due”) ([4]; rs763132 (ARHGAP18) alleles T, G) was 0.43, the “OR, dose reduction due to adverse effects” value ([4]; rs763132 (ARHGAP18) genotype G/G) was 0.13 and the “OR, dose reduction due to adverse effects” value ([4]; rs763132 (ARHGAP18) genotype G/T) was 0.49. The “OR, dose reduction due to adverse effects” value ([4]; rs763132 (ARHGAP18) genotype T/T (reference)) was 1.00, the “Linear OR, dose reduction due to adverse effects” value (shortened to “Linear OR, dose reduction due”) ([4]; rs763132 (ARHGAP18) genotype) was 0.44 and the “OR (95% CI), alleles, dose reduction due” value ([4]; rs1183035 (MAOB) alleles T, C) was 0.28. For the same molecule, the “OR, dose reduction due to adverse effects” value ([4]; rs1183035 (MAOB) genotype C/C) was 0.00, the “OR, dose reduction due to adverse effects” value ([4]; rs1183035 (MAOB) genotype C/T) was 0.83 and the “OR, dose reduction due to adverse effects” value ([4]; rs1183035 (MAOB) genotype T/T (reference)) was 1.00. For the same molecule, the “Linear OR, dose reduction due” value ([4]; rs1183035 (MAOB) genotype) was 0.42, the “OR (95% CI), alleles, dose reduction due” value ([4]; rs4474069 (RAPGEF1) alleles C, T) was 1.82 and the “OR, dose reduction due to adverse effects” value ([4]; rs4474069 (RAPGEF1) genotype C/C (reference)) was 1.00. The “OR, dose reduction due to adverse effects” value ([4]; rs4474069 (RAPGEF1) genotype C/T) was 2.68, the “OR, dose reduction due to adverse effects” value ([4]; rs4474069 (RAPGEF1) genotype T/T) was 1.33 and the “Linear OR, dose reduction due” value ([4]; rs4474069 (RAPGEF1) genotype) was 1.87. For the same molecule, the “Linear OR, treatment suspension due to adverse effects” value (“Linear OR, treatment suspension due” for short) ([5]; human, in vivo, 3 months) was 2.43, the “OR (95% CI), alleles, treatment suspension due to adverse effects” value ([5]; human, in vivo, 3 months) was 2.41 and the “OR (95% CI), alleles, treatment suspension due to adverse effects” value ([5]; rs7146 (C19orf6) alleles C, T) was 1.83. For the same molecule, the “OR, treatment suspension due to adverse effects” value ([5]; rs7146 (C19orf6) genotype C/C (reference)) was 1.00, the “OR, treatment suspension due to adverse effects” value ([5]; rs7146 (C19orf6) genotype C/T) was 1.61 and the “OR, treatment suspension due to adverse effects” value ([5]; rs7146 (C19orf6) genotype T/T) was 4.05. The “Linear OR, treatment suspension due” value ([5]; rs7146 (C19orf6) genotype, linear model) was 1.93, the “OR (95% CI), alleles, treatment suspension due to adverse effects” value ([5]; rs477292 (OPRM1) alleles G, A) was 1.91 and the “OR, treatment suspension due to adverse effects” value ([5]; rs477292 (OPRM1) genotype A/A) was 3.54. The “OR, treatment suspension due to adverse effects” value ([5]; rs477292 (OPRM1) genotype A/G) was 2.13, the “OR, treatment suspension due to adverse effects” value ([5]; rs477292 (OPRM1) genotype G/G (reference)) was 1.00 and the “Linear OR, treatment suspension due” value ([5]; rs477292 (OPRM1) genotype, linear model) was 1.99. For the same molecule, the “OR (95% CI), alleles, treatment suspension due to adverse effects” value ([5]; rs495491 (OPRM1) alleles T, C) was 2.08, the “OR, treatment suspension due to adverse effects” value ([5]; rs495491 (OPRM1) genotype C/C) was 3.80 and the “OR, treatment suspension due to adverse effects” value ([5]; rs495491 (OPRM1) genotype C/T) was 2.77. The “OR, treatment suspension due to adverse effects” value ([5]; rs495491 (OPRM1) genotype T/T (reference)) was 1.00, the “Linear OR, treatment suspension due” value ([5]; rs495491 (OPRM1) genotype, linear model) was 2.19 and the “OR (95% CI), alleles, treatment suspension due to adverse effects” value ([5]; rs3778151 (OPRM1) alleles T, C) was 2.40. For the same molecule, the “OR, treatment suspension due to adverse effects” value ([5]; rs3778151 (OPRM1) genotype C/C) was 8.48, the “OR, treatment suspension due to adverse effects” value ([5]; rs3778151 (OPRM1) genotype C/T) was 2.26 and the “OR, treatment suspension due to adverse effects” value ([5]; rs3778151 (OPRM1) genotype T/T (reference)) was 1.00. The “Linear OR, treatment suspension due” value ([5]; rs3778151 (OPRM1) genotype, linear model) was 2.55, the “OR (95% CI), alleles, treatment suspension due to adverse effects” value ([5]; rs7930792 (UBASH3B) alleles C, G) was 0.52 and the “OR, treatment suspension due to adverse effects” value ([5]; rs7930792 (UBASH3B) genotype C/C (reference)) was 1.00. For the same molecule, the “OR, treatment suspension due to adverse effects” value ([5]; rs7930792 (UBASH3B) genotype C/G) was 0.58, the “OR, treatment suspension due to adverse effects” value ([5]; rs7930792 (UBASH3B) genotype G/G) was 0.21 and the “Linear OR, treatment suspension due” value ([5]; rs7930792 (UBASH3B) genotype, linear model) was 0.52. The “OR (95% CI), alleles, treatment suspension due to adverse effects” value ([5]; rs9479757 (OPRM1) alleles G, A) was 3.27, the “OR, treatment suspension due to adverse effects” value ([5]; rs9479757 (OPRM1) genotype A/A) was 12.30 and the “OR, treatment suspension due to adverse effects” value ([5]; rs9479757 (OPRM1) genotype A/G) was 3.46. For the same molecule, the “OR, treatment suspension due to adverse effects” value ([5]; rs9479757 (OPRM1) genotype G/G (reference)) was 1.00, the “Linear OR, treatment suspension due” value ([5]; rs9479757 (OPRM1) genotype, linear model) was 3.47 and the “OR (95% CI), alleles, treatment suspension due to adverse effects” value ([5]; rs12423809 (C12orf36) alleles A, C) was 1.91. For the same molecule, the “OR, treatment suspension due to adverse effects” value ([5]; rs12423809 (C12orf36) genotype A/A (reference)) was 1.00, the “OR, treatment suspension due to adverse effects” value ([5]; rs12423809 (C12orf36) genotype A/C) was 1.59 and the “OR, treatment suspension due to adverse effects” value ([5]; rs12423809 (C12orf36) genotype C/C) was 3.53. For the same molecule, the “Linear OR, treatment suspension due” value ([5]; rs12423809 (C12orf36) genotype, linear model) was 1.87.
